Test results: article PMC10928712, “High Target Homology Does Not Guarantee Inhibition: Aminothiazoles Emerge as Inhibitors of Plasmodium falciparum” (ACS Infectious Diseases, 2024)

What was measured:
P. falciparum 3D7 [1] = test: Method II growth-inhibition assay (PicoGreen, 3 days), 3D7; assay type: cell-based; details: Plasmodium falciparum, 3D7, method II
Description: (§1) Fidock (Columbia University).

P. falciparum NF54 = test: Method II growth-inhibition assay (PicoGreen, 3 days), NF54; assay type: cell-based; details: Plasmodium falciparum; chloroquine-sensitive NF54, method II
Description: as §1

P. falciparum Dd2 = test: Method III growth inhibition assay (HRP2-ELISA, 3 days), Dd2; assay type: cell-based, Plasmodium falciparum; details: Plasmodium falciparum, DD2, chloroquine-resistant Dd2, method III
Hep G2 cells = test: Hep G2 viability assay (counter screen); assay type: cell-based, human; details: cytotoxicity, 48 h
Description: HepG2 cells (2 × 10^5 cells per well) were seeded in 24-well, flat-bottomed plates. Culturing of cells, incubations, and OD measurements were performed as described previously with small modifications.[58] 24 h after seeding the cells, the incubation was started by the addition of compounds in a final DMSO concentration of 1%. The metabolic activity of the living cell mass was determined after 48 h. At least three independent measurements were performed for each compound. The IC50 values were determined during logarithmic growth using GraphPad Prism software. All experiments were performed at least in triplicate, and data reported represent the mean ± SD.

P. falciparum 3D7 [2] = test: IDP rescue assay, P. falciparum 3D7; assay type: cell-based; details: Plasmodium falciparum
Description: Fidock (Columbia University). […] P. falciparum cultures were treated as described in method II. For IDP (Isoprenoids.com) rescue experiments, 125 μM IDP was added to the appropriate wells for the duration of the experiment. The well-described DXR inhibitor FSM was used as a positive control. IC50 values were calculated by nonlinear regression analysis using GraphPad Prism software. All experiments were performed at least in triplicate, and data reported represent the mean ± SD.

[3] = test system: MEP pathway and TCA cycle metabolites in P. falciparum 3D7; test: LC-MS/MS profiling of MEP pathway, TCA cycle, glycolytic and pentose phosphate metabolites in P. falciparum; assay type: cell-based, Plasmodium falciparum; details: 12 h
P. falciparum 3D7-DXPS+ = test: Growth inhibition of PfDXPS overexpressing parasites (3D7-DXPS+); assay type: cell-based; details: Plasmodium falciparum, 3D7, read-out: PfDXPS IC50
Description: (§2) The open reading frame (ORF) encoding 1-deoxy-D-xylulose-5-phosphate synthase (PfDXPS; PF3D7_1337200) was amplified from genomic DNA isolated from unsynchronized P. falciparum 3D7 cultures using the Platinum PCR SuperMix High Fidelity (Invitrogen). Forward and reverse primers contained restriction sites for KpnI and AvrII in sense and antisense orientation, respectively (oligonucleotides pfDXPS-Kpn1-S: […]; pfDXPSmyc-Avr2-AS: […] ). PCR products and the transfection vector pARL1a-hDHFR PfARG-GFP were digested with KpnI and AvrII, purified (Gel extraction Kit and PCR purification kit; Qiagen), and cloned into the transfection vector yielding the construct for overexpression pARL-DXS-strep. XL 10-Gold E. coli ultracompetent cells (Agilent Technologies) were transformed with the generated construct to amplify the plasmid and colonies checked using restriction analysis and sequencing of the plasmid. Bacterial clones carrying the overexpression construct and the empty pARL1a vector (MOCK plasmid) were amplified in overnight cultures, isolated (Plasmid Maxi Kit; QIAGEN), and subsequently used to transfect P. falciparum 3D7 ring-stage parasites, as already described.[59] Briefly, 120 μg of plasmid DNA was centrifuged and air-dried, and the pellet was resuspended in TE buffer and cytomix reagent and mixed with the P. falciparum culture. Parasites were transfected using electroporation and selected with WR 99210. The generation and characterization of the PfTPK overexpression cell line has been reported before.[60]
(§3) P. falciparum cultures were treated as described in method I. For target specification toward PfTPK and PfDXPS, compounds were tested in comparison against overexpressing cell lines and the respective MOCK line containing only the transfected vector backbone. Parasite viability/proliferation was determined.

[4] = test system: P. falciparum 3D7 MOCK cell line; test: Growth inhibition of MOCK cell line (vector backbone only); assay type: cell-based; details: Plasmodium falciparum, 3D7, read-out: MOCK IC50, MOCK compared with 3D7-TPK+; single measurement; 95% CI in brackets
Description: as §2, §3

M. tuberculosis DXPS = molecular target: M. tuberculosis DXPS; set-up: method as in PMID 36320685; details: Morrison inhibition constant, slow-, tight-binding; read-out: Ki* MtDXPS; cited from earlier work
[5] = test system: Mycobacterium tuberculosis H37Rv strain; set-up: method as in PMID 36320685; details: cited from earlier work
[6] = test system: MEP pathway metabolites in E. coli ΔTolC; test: LC-MS/MS profiling of MEP pathway metabolites in E. coli; details: 48 μM (10× the IC50), 2 h, pyruvate concentration drops
Description: Overnight cultures of E. coli ΔTolC were diluted 1:1000 in LB media and grown at 37 °C until reaching the mid logarithmic phase (OD600 = 0.67–7.2). […] For normalization, the OD600 was determined after 2 h of treatment with the inhibitor. Cells were pelleted by centrifugation for 5 min at 3000g at 4 °C. The supernatants were removed, and cells were washed twice with 1× PBS. The supernatants were removed, and the pellets were stored at −80 °C until analysis. […]
For pyruvate analysis from the E. coli samples, the LC separation was done on the Shimadzu Nexera II using the Poroshell 120 (Agilent, 2.7 μm, 150 × 2.1 mm) flowing at 0.5 mL/min. […] Metabolites were detected using MRM transitions that were previously optimized using standards. […] For quantification, an external standard curve was prepared using a series of standard samples containing different concentrations of metabolites and fixed concentration of the internal standard. […]

[7] = test system: blood-stage P. falciparum 3D7; details: Plasmodium falciparum

What does the source list for `Cc1nc(N)sc1-c1csc(Nc2ccc(C(F)(F)F)cc2)n1` [compound 1]?
IC50 (P. falciparum 3D7 [1]; 95% CI in brackets, read-out: IC50 B): 1.6 µM; IC50 (P. falciparum 3D7 [1]; read-out: IC50 3D7-II): 1.7 ± 0.6 µM; IC50 (P. falciparum NF54): 0.8 ± 0.1 µM; IC50 (P. falciparum Dd2): 0.8 ± 0.4 µM; IC50 (Hep G2 cells; Homo sapiens, HepG2, 48 h): 54 ± 2.4 µM; IC50 (Hep G2 cells): > 50 µM; IC50 (P. falciparum 3D7 [2]; 3D7, 72 h, + IDP (125 μM)): 2.4 ± 0.2 µM; IC50 (P. falciparum 3D7 [2]; 3D7, without IDP): 1.9 ± 0.2 µM; DOXP, Mean of + 1 ([3]; 1 at 7.65 μM (5× IC50), UNT 1,163, P >0,99999): 1,163; MEcDP, Mean of + 1 ([3]; 1 at 7.65 μM, UNT 11,24, P 0,720090): 10,20; PEP, Mean of + 1 ([3]; 1 at 7.65 μM, UNT 11,98, P 0,005029): 5,297; GC3P, Mean of + 1 ([3]; 1 at 7.65 μM, UNT 13,48, P 0,003896): 6,757; 3PGA, Mean of + 1 ([3]; 1 at 7.65 μM, UNT 14,78, P 0,037010): 8,127; G6P, Mean of + 1 ([3]; 1 at 7.65 μM, UNT 17,23, P 0,044056): 6,793; MAL, Mean of + 1 ([3]; 1 at 7.65 μM, UNT 53,67, P 0,001940): 23,30; 2PGA, Mean of + 1 ([3]; 1 at 7.65 μM, UNT 61,07, P 0,050194): 31,49; CIT, Mean of + 1 ([3]; 1 at 7.65 μM, UNT 64,80, P 0,008553): 25,15; CDP-ME, Mean of + 1 ([3]; 1 at 7.65 μM, UNT 0,06667, P 0,587914): 0,07667; S7P, Mean of + 1 ([3]; 1 at 7.65 μM, UNT 90,64, P 0,340281): 54,93; PYR, Mean of + 1 ([3]; 1 at 7.65 μM, UNT 102,5, P 0,030535): 28,19; G1P/F6P, Mean of + 1 ([3]; 1 at 7.65 μM, UNT 103,0, P 0,112890): 57,13; LAC, Mean of + 1 ([3]; 1 at 7.65 μM, UNT 104,2, P 0,388380): 80,23; SUC, Mean of + 1 ([3]; 1 at 7.65 μM, UNT 118,0, P 0,002161): 60,23; DMADP, Mean of + 1 ([3]; 1 at 7.65 μM, UNT 0,1667, P 0,032540): 0,1033; HDMADP, Mean of + 1 ([3]; 1 at 7.65 μM, UNT 0,2200, P 0,306022): 0,1833; MEP, Mean of + 1 ([3]; 1 at 7.65 μM, UNT 0,4233, P 0,070645): 0,3100; FUM, Mean of + 1 ([3]; 1 at 7.65 μM, UNT 1668, P 0,003295): 727,7; ACO, Mean of + 1 ([3]; 1 at 7.65 μM, UNT 1,877, P 0,144422): 1,140; RU5P/RUP, Mean of + 1 ([3]; 1 at 7.65 μM, UNT 5,757, P 0,038874): 2,520; IC50 (P. falciparum 3D7-DXPS+): 2.08 µM; IC50 [4]: 1.18 µM; Ki (M. tuberculosis DXPS): 0.21 ± 0.03 µM; MIC [5]: 5 to 10 µM; MEP pathway metabolite concentrations upon inhibitor treatment [6]: all downstream metabolites of DXPS are increased; IC50 [7]: 0.6 to 1.7 µM
